What was measured:
K. pneumoniae = experiment: dye formation from RIND VII in presence of calimycin, K. pneumoniae; assay type: cell-based, Klebsiella pneumoniae (ATCC 13883); set-up: key: 0: no dye formation; +/-: faint dye formation; 1+: light dye formation; 2+: moderate dye formation; 3+: strong dye formation; 4+: very strong dye formation; settings: calimycin 10^-3 molar, calcium chloride
Experimental: (§1) gram-negative bacteria Enterobacter cloacae (ATCC 23355), Escherichia coli (ATCC 25922), Proteus vulgaris (ATCC 13315), Klebsiella pneumoniae (ATCC 13883) and Pseudomonas aeruginosa (ATCC 27853), and gram-positive bacteria Staphylococcus aureus (ATCC 25923) and Streptococcus pyogenes (ATCC 19615), and brain heart infusion (BHI) broth from Difco Laboratories (Detroit, Mich.),
(§2) Bacterial suspensions were prepared by growing the cells in BHI to stationary phase overnight at 37° C. P. aeruginosa was grown with agitation. […]
(§3) TERGITOL 7 anionic surfactant was used to differentiate viable bacteria according to the prior art method. […] The amount of dye formed was then determined visually and graded as follows: 0 indicates no dye formation, +/- indicates faint dye formation, 1+ indicates light dye formation, 2+ indicates moderate dye formation, 3+ indicates strong dye formation, and 4+ indicates very strong dye formation.
(§4) Calimycin, a polyether antibiotic, was similarly used with RIND VII in the differentiation of bacteria. Assays were performed as described above, except that 25 μl of 1 molar calcium chloride solution was added to each test solution and the P. aeruginosa response was measured in the presence of 10% yeast extract as the carbon source instead of glucose. […]

S. faecalis = experiment: dye formation from RIND VII in presence of calimycin, S. faecalis; assay type: cell-based, Streptococcus faecalis (clinical urine isolate); set-up: key: 0: no dye formation; +/-: faint dye formation; 1+: light dye formation; 2+: moderate dye formation; 3+: strong dye formation; 4+: very strong dye formation; settings: calimycin 10^-3 molar, calcium chloride
Experimental: Streptococcus faecalis was isolated from a clinical urine specimen obtained from a local hospital,
(§5) Bacterial suspensions were prepared by growing the cells in BHI to stationary phase overnight at 37° C. P. aeruginosa was grown with agitation. About 40 ml of overnight cultures were centrifuged, decanted and washed once with 0.05 molar potassium phosphate buffer or 0.05 molar N-2-hydroxyethylpiperazine-N'-2-ethanesulfonic acid (HEPES) buffer, pH 7.8, and resuspended in buffer.
A dispersion containing a RIND compound was prepared by dissolving RIND VII from Table II above in N,N-dimethylformamide (DMF) at 16 mg compound per ml of solvent. […]
as §3, §4

E. coli (gram -) [1] = experiment: inhibition of the reduction of RIND XXXV in dry analytical element (Example 6), E. coli; assay type: cell-based, Escherichia coli (ATCC 25922); settings: calcium chloride, 30 minutes, 37° C.
Experimental: as §1, §2
Optical density readings (OD) were made at 635 nm at 0 minutes and after incubation at 37° C. for 30 minutes for all solutions, and the change (ΔOD) was determined. […] The corrected percent inhibition was calculated by dividing the difference between ΔOD obtained from a Control test without antibiotic and the ΔOD of the test, by the ΔOD of the Control without antibiotic. All readings were corrected by subtracting readings of the appropriate background control. […]
The relative fluorescence (excitation 540 nm, emission 620 nm) was measured using a standard spectrophotometer, and the change in relative fluorescence was determined after 30 minutes at 37° C. […]

E. coli (gram -) [2] = experiment: change in relative fluorescence with water-compatible RIND XXXV (Example 4), E. coli; assay type: cell-based, Escherichia coli (ATCC 25922); settings: 37° C., without antibiotic 2539
Experimental: as §1, §5
A dispersion containing a RIND compound was prepared by dissolving RIND VII from Table II above in N,N-dimethylformamide (DMF) at 16 mg compound per ml of solvent. An aliquot (250 μl) of the resulting solution was added to 500 μl of TRITON X-100 surfactant. This mixture was then added dropwise with stirring to 25 ml of 0.05 molar HEPES buffer. A solution containing a water-compatible RIND compound XXXV was prepared by dissolving the compound (16 mg/ml) in N,N-dimethylformamide which had been acidified with a 0.1% sulfuric acid solution.
A solution was prepared from the following components: 100 μl RIND XXXV solution (16 mg/ml acidified N,N-dimethylformamide), 200 μl glucose solution (10% in water), 200 μl trimethyl-1,4-benzoquinone ETA solution (1.5 mg/ml methanol) and 10 ml HEPES buffer.
Test solutions were prepared from the following reagents: 50 μl HEPES buffer, 50 μl polyether antibiotic A23187 (free acid, 0.01 molar in methanol), 10 μl calcium chloride solution (1 molar) (serial dilutions of buffer and antibiotic were performed to obtain various antibiotic concentrations), 50 μl of the appropriate cell suspensions (E. coli, about 10^8 cells/ml and S. aureus, about 10^8 cells/ml) and 200 μl of the RIND solution. Control solutions were prepared as described in Examples 2 and 3.
Relative fluorescence was measured using a standard spectrophotometer modified to read at excitation of 540 nm and emission of 620 nm. The change (Δ) in relative fluorescence was determined after 30 minutes at 37° C. for several concentration levels of antibiotic.

S. pyogenes = experiment: dye formation from RIND VII in presence of calimycin, S. pyogenes; assay type: cell-based, Streptococcus pyogenes (ATCC 19615); set-up: key: 0: no dye formation; +/-: faint dye formation; 1+: light dye formation; 2+: moderate dye formation; 3+: strong dye formation; 4+: very strong dye formation; settings: calimycin 10^-3 molar, calcium chloride
Experimental: as §1, §2, §3, §4

Q: CNc1ccc2oc(C[C@H]3O[C@@]4(CC[C@H]3C)O[C@H]([C@H](C)C(=O)c3ccc[nH]3)[C@H](C)C[C@H]4C)nc2c1C(=O)O [calimycin, Calimycin] was tested. Which dye formation (K. pneumoniae; 15 Minutes) did it give?
A: The dye formation was 4+.

Q: And the dye formation (K. pneumoniae; 30 Minutes)?
A: The dye formation was 4+.

Q: And the dye formation (S. faecalis; 15 Minutes)?
A: The dye formation was “+/-”.

Q: And the dye formation (S. faecalis; 30 Minutes)?
A: The dye formation was “+/-”.

Q: What about the “Corrected Percent Inhibition” value (E. coli (gram -) [1]) of the same molecule?
A: The value was 11.5%.

Q: What about the “Δ Relative Fluorescence after 30 Min.” value (E. coli (gram -) [2]; antibiotic 1 × 10^-4 molar) of the same molecule?
A: Its value is 2804.

Q: What about the “Δ Relative Fluorescence after 30 Min.” value (E. coli (gram -) [2]; antibiotic 2 × 10^-4 molar) of the same molecule?
A: The value was 2540.

Q: What about the “Δ Relative Fluorescence after 30 Min.” value (E. coli (gram -) [2]; antibiotic 4 × 10^-4 molar) of the same molecule?
A: The value was 2338.

Q: What about the “Δ Relative Fluorescence after 30 Min.” value (E. coli (gram -) [2]; antibiotic 8 × 10^-4 molar) of the same molecule?
A: Its value is 2411.

Q: And the dye formation (S. pyogenes; 15 Minutes)?
A: Its dye formation is 0.

Q: And the dye formation (S. pyogenes; 30 Minutes)?
A: The dye formation was 0.

From patent US4885239A, “Rapid differentiation of bacteria using polyether antibiotics” (Eastman Kodak Company, priority 1986, dated 1989)
